Laboratory results published in patent US7238668B1, “Inhibition of lymphocyte adherence with CS-1-peptides and fragments thereof” (Fred Hutchinson Cancer Research Center, priority 1989, dated 2007).
Ends that are not written are not given here.

Assays:
Jurkat cells = assay: Jurkat cell adhesion to surfaces coated with peptide-rsa conjugates; format: cell-based, human; conditions: Jurkat; FIG. 12; 5 ug/ml peptide; 30 min
Experimental: ^51Cr-labeled Jurkat cells ([…]) were incubated on surfaces coated with varying concentrations of peptide-rsa conjugates starting at 50 ug/ml (w/v) fragment or peptide (based on peptide not peptide-conjugate weight). […] (No adhesion=no measurable adhesion above negative controls.)
(§1) Adhesion of various hematopoetic cell lines to CS-1 (open bars; FIG. 12) or LDV minimal peptide-coated surfaces (cross-hatched bars; FIG. 12) was tested as follows: Jurkat (T lymphoblastoid), A375 (melanoma), U937 (monocytic), Ramos (B lymphoblastoid), and ST-1 (EBV transformed B lymphoblastoid) cells were allowed to adhere to CS-1-rsa or LDVPST-rsa (5 ug/ml peptide) coated surfaces for 30 min at 37° C. At the end of this time the non-adherent cells were washed off and the adherent cells were solubilized in NaOH/SDS and quantitated in a gamma counter. The results are expressed as bound counts per minute.

A375 melanoma cells = assay: A375 melanoma cell adhesion to peptide-rsa coated surfaces; format: cell-based, human; conditions: FIG. 12, 5 ug/ml peptide, 30 min
Experimental: as §1

Question: What does the source list for “LDVPST-RSA: LDVPST conjugated to rabbit serum albumin (also: conjugated to rabbit serum albumin, site not given here)”?
Answer: Cell adhesion to conjugate-coated surfaces (Jurkat cells): only slightly; Cell adhesion to conjugate-coated surfaces (A375 melanoma cells): adhered
